Results: patent US8580811B2 (Ligand Pharmaceuticals Incorporated, priority 2005, dated 2013)
pKi: −log10 of the molar value.

What follows are compounds tested against T1, human AR (Homo sapiens, UniProt P10275) (assay: IR Binding Assay: whole cell competitive binding of test compounds against 3H-DHT in COS-1 cells transfected with pRShAR). Details: not given.
T1 construct: expressed in transfected cells; host or cells: COS-1 cells
T1 sequence (P10275 1-920): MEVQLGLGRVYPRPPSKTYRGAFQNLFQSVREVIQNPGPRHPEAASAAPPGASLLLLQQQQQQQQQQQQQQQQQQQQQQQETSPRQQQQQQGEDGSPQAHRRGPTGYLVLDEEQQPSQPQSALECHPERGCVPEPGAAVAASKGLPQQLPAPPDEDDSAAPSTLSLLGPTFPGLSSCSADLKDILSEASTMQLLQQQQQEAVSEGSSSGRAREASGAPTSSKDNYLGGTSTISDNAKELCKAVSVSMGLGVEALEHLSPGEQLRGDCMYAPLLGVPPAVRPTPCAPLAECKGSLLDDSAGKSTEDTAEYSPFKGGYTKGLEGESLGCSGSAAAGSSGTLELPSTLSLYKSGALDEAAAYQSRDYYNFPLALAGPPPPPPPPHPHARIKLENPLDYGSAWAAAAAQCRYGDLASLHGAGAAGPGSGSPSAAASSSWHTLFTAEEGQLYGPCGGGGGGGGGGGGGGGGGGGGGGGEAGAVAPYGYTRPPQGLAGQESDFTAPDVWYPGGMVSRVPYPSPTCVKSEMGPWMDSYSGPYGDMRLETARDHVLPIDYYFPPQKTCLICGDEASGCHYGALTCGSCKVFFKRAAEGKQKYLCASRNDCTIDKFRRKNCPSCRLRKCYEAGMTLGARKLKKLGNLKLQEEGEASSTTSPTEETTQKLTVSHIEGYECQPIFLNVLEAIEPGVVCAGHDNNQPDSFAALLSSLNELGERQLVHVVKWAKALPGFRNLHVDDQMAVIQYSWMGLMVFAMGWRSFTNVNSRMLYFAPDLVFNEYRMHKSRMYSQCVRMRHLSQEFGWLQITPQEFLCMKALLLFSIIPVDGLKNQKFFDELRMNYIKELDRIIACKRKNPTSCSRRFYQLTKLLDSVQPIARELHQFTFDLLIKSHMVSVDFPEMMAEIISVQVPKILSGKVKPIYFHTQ
Method: For the whole cell binding assay, COS-1 cells in 96-well microtiter plates including DMEM-10% FBS were transfected as described above with the following plasmid DNA: pRShAR (2 ng/well), pRS-β-Gal (50 ng/well) and pGEM (48 ng/well). Six hours after transfection, media was removed, the cells were washed with PBS and fresh media was added. The next day, the media was changed to DMEM-serum free to remove any endogenous ligand that might be complexed with the receptor in the cells.
After 24 hours in serum-free media, either a saturation analysis to determine the Kd for tritiated dihydrotestosterone (^3H-DHT) on human AR or a competitive binding assay to evaluate the ability of test compounds to compete with ^3H-DHT for AR was performed. […] For the competitive binding assay, media including 1 nM ^3H-DHT and test compounds in concentrations ranging from 10^−10 to 10^−6 M were added to the cells. Three replicates were used for each sample. After three hours at 37° C., an aliquot of the total binding media at each concentration of ^3H-DHT was removed to estimate the amount of free ^3H-DHT. The remaining media was removed, the cells were washed three times with PBS to remove unbound ligand, and cells were lysed with a Triton X-100-based buffer. The lysates were assayed for amount of bound ^3H-DHT and β-Gal activity using a scintillation counter or spectrophotometer, respectively.
For the saturation analyses, the difference between the total binding and the nonspecific binding, normalized by the β-Gal rate, was defined as specific binding. The specific binding was evaluated by Scatchard analysis to determine the Kd for ^3H-DHT. See e.g., D. Rodbard, “Mathematics and statistics of ligand assays: an illustrated guide” In: J. Langon and J. J. Clapp, eds., Ligand Assay, Masson Publishing U.S.A., Inc., New York, pp. 45-99, (1981), the disclosure of which is herein incorporated by reference. For the competition studies, the data was plotted as the amount of ^3H-DHT (% of control in the absence of test compound) remaining over the range of the dose-response curve for a given compound. […] The Ki values were determined by application of the Cheng-Prusoff equation to the IC50 values, where:
[formula] After correcting for non-specific binding, IC50 values were determined. […] The IC50 value was determined graphically from a log-logit plot of the data. The Ki values were determined by application of the Cheng-Prusoff equation to the IC50 values, the labeled ligand concentration and the Kd of the labeled ligand. see e.g., Cheng, Y. C. and Prusoff, W. H. Biochem. Pharmacol. 22:3099 (1973).

Question: With `CC1c2c(ccc3[nH]c(=O)cc(Cl)c23)N(CC(F)(F)F)C1c1ccc(O)cc1` (racemic) [Compound 155, (±)-9-Chloro-2-(4-hydroxyphenyl)-1-methyl-3-(2,2,2-trifluoroethyl)-1,2,3,6-tetrahydro-pyrrolo[3,2-f]quinolin-7-one] as the compound, how does the pKi read?
Answer: < 8.00

Question: `CCc1c(C)c2c3c(Cl)cc(=O)[nH]c3ccc2n1CC(O)C(F)(F)F` (racemic) [Compound 232, (±)-9-Chloro-2-ethyl-1-methyl-3-(3,3,3-trifluoro-2-hydroxy-propyl)-3,6-dihydro-pyrrolo[3,2-f]quinolin-7-one] was tested. Which pKi did it give?
Answer: > 8.30

Question: `CCCN1c2ccc3[nH]c(=O)cc(Cl)c3c2C(C)C1C` (racemic) [Compound 137, (±)-9-Chloro-1,2-dimethyl-3-propyl-1,2,3,6-tetrahydro-pyrrolo[3,2-f]quinolin-7-one] was tested. Which pKi did it give?
Answer: > 8.30

Question: `Cc1c(C)n(C[C@@H](O)CO)c2ccc3[nH]c(=O)cc(C(F)(F)F)c3c12` [Compound 296, (R)-3-(2,3-dihydroxypropyl)-1,2-dimethyl-9-trifluoromethyl-3,6-dihydro-pyrrolo[3,2-f]-quinolin-7-one] was tested. Which pKi did it give?
Answer: < 8.00

Question: How did the pKi turn out when `Cc1c(-c2ccccc2)n(CC(F)(F)C(F)(F)F)c2ccc3[nH]c(=O)cc(Cl)c3c12` [Compound 218, 9-Chloro-1-methyl-3-(2,2,3,3,3-pentafluoropropyl)-2-phenyl-3,6-dihydro-pyrrolo[3,2-f]-quinolin-7-one] was run?
Answer: > 8.30

Question: With `CC1c2c(ccc3[nH]c(=O)cc(Cl)c23)N(CCc2cccs2)C1C` (racemic) [Compound 142, (±)-9-Chloro-1,2-dimethyl-3-(2-thien-2-yl-ethyl)-1,2,3,6-tetrahydro-pyrrolo[3,2-f]-quinolin-7-one] as the compound, how does the pKi read?
Answer: > 8.30

Question: `CC1c2c(ccc3[nH]c(=O)cc(Cl)c23)N(CC(F)(F)F)C1c1cccs1` (racemic) [Compound 161, (±)-9-Chloro-1-methyl-2-(thien-2-yl)-3-(2,2,2-trifluoroethyl)-1,2,3,6-tetrahydro-pyrrolo[3,2-f]quinolin-7-one] was tested. Which pKi did it give?
Answer: > 8.30

Question: How did the pKi turn out when `CCCC1c2c(ccc3[nH]c(=O)cc(Cl)c23)N(CC(F)(F)F)C1C` (racemic) [Compound 165, (±)-9-Chloro-2-methyl-1-propyl-3-(2,2,2-trifluoroethyl)-1,2,3,6-tetrahydro-pyrrolo[3,2-f]-quinolin-7-one] was run?
Answer: > 8.30

Question: `CC1c2c(ccc3[nH]c(=O)cc(Cl)c23)N(CC(F)(F)Cl)C1C` (racemic) [Compound 138, (±)-9-Chloro-3-(2-chloro-2,2-difluoro-ethyl)-1,2-dimethyl-1,2,3,6-tetrahydro-pyrrolo[3,2-f]-quinolin-7-one] was tested. Which pKi did it give?
Answer: > 8.30

Question: With `CC1c2c(ccc3[nH]c(=O)cc(Cl)c23)N(CC(F)(F)F)C1c1ccc(Cl)c(Cl)c1` (racemic) [Compound 157, (±)-9-Chloro-2-(3,4-dichlorophenyl)-1-methyl-3-(2,2,2-trifluoroethyl)-1,2,3,6-tetrahydropyrrolo[3,2-f]quinolin-7-one] as the compound, how does the pKi read?
Answer: > 8.30

Question: `CC1c2c(ccc3[nH]c(=O)cc(Cl)c23)N(CC(F)(F)F)C1c1ccc(F)cc1F` (racemic) [Compound 150, (±)-9-Chloro-2-(2,4-difluorophenyl)-1-methyl-3-(2,2,2-trifluoroethyl)-1,2,3,6-tetrahydropyrrolo-[3,2-f]quinolin-7-one] was tested. Which pKi did it give?
Answer: < 8.00

Question: How did the pKi turn out when `CC1c2c(ccc3[nH]c(=O)cc(Cl)c23)N(CCO)C1C` (racemic) [Compound 139, (±)-9-Chloro-1,2-dimethyl-3-(2-hydroxyethyl)-1,2,3,6-tetrahydro-pyrrolo[3,2-f]-quinolin-7-one] was run?
Answer: < 8.00

Question: `Cc1c(-c2nccs2)n(C[C@H](O)C(F)(F)F)c2ccc3[nH]c(=O)cc(Cl)c3c12` [Compound 276, (S)-9-Chloro-1-methyl-2-(1,3-thiazol-2-yl)-3-(3,3,3-trifluoro-2-hydroxy-propyl)-3,6-dihydro-pyrrolo[3,2-f]quinolin-7-one] was tested. Which pKi did it give?
Answer: < 8.00

Question: `Cc1c(C)n(C)c2ccc3[nH]c(=O)cc(Cl)c3c12` [Compound 208, 9-Chloro-1,2,3-trimethyl-3,6-dihydro-pyrrolo[3,2-f]quinolin-7-one] was tested. Which pKi did it give?
Answer: 8.00 to 8.30

Question: How did the pKi turn out when `CC1c2c(ccc3[nH]c(=O)cc(C(F)(F)F)c23)N(CCCC(F)(F)F)C1C` (racemic) [Compound 182, (±)-1,2-Dimethyl-3-(4,4,4-trifluorobutyl)-9-trifluoromethyl-1,2,3,6-tetrahydro-pyrrolo[3,2-f]quinolin-7-one] was run?
Answer: > 8.30

Question: With `Cc1c(-c2ccco2)n(C[C@H](O)C(F)(F)F)c2ccc3[nH]c(=O)cc(Cl)c3c12` [Compound 277, (S)-9-Chloro-2-(2-furyl)-1-methyl-3-(3,3,3-trifluoro-2-hydroxy-propyl)-3,6-dihydro-pyrrolo[3,2-f]quinolin-7-one] as the compound, how does the pKi read?
Answer: > 8.30

Question: With `CC1c2c(ccc3[nH]c(=O)cc(Cl)c23)N(CC(F)(F)F)C1c1cccc([N+](=O)[O-])c1` (racemic) [Compound 154, (±)-9-Chloro-1-methyl-2-(3-nitrophenyl)-3-(2,2,2-trifluoroethyl)-1,2,3,6-tetrahydro-pyrrolo[3,2-f]quinolin-7-one] as the compound, how does the pKi read?
Answer: < 8.00

Question: How did the pKi turn out when `CCc1c(C)c2c3c(Cl)cc(=O)[nH]c3ccc2n1C[C@@H](O)C(F)(F)F` [Compound 281, (R)-9-Chloro-2-ethyl-1-methyl-3-(3,3,3-trifluoro-2-hydroxy-propyl)-3,6-dihydro-pyrrolo[3,2-f]quinolin-7-one] was run?
Answer: > 8.30

Question: How did the pKi turn out when `Cc1c(C)n(CC(F)(F)F)c2ccc3[nH]c(=O)cc(Cl)c3c12` [Compound 184, 9-Chloro-1,2-dimethyl-3-(2,2,2-trifluoroethyl)-3,6-dihydro-pyrrolo[3,2-f]quinolin-7-one] was run?
Answer: > 8.30

Question: `Cc1c(-c2ccncc2)n(CC(F)(F)C(F)(F)F)c2ccc3[nH]c(=O)cc(Cl)c3c12` [Compound 263, 9-Chloro-1-methyl-3-(2,2,3,3,3-pentafluoropropyl)-2-(4-pyridyl)-3,6-dihydro-pyrrolo[3,2-f]quinolin-7-one] was tested. Which pKi did it give?
Answer: > 8.30

Question: `Cc1c(C)n(CC(O)C(F)(F)F)c2ccc3[nH]c(=O)cc(Cl)c3c12` (racemic) [Compound 231, (±)-9-Chloro-1,2-dimethyl-3-(3,3,3-trifluoro-2-hydroxy-propyl)-3,6-dihydro-pyrrolo[3,2-f]-quinolin-7-one] was tested. Which pKi did it give?
Answer: > 8.30

Question: `CCc1c(C)c2c3c(C(F)(F)F)cc(=O)[nH]c3ccc2n1CC(F)(F)C(F)(F)F` [Compound 225, 2-Ethyl-1-methyl-3-(2,2,3,3,3-pentafluoropropyl)-9-trifluoromethyl-3,6-dihydro-pyrrolo[3,2-f]-quinolin-7-one] was tested. Which pKi did it give?
Answer: > 8.30

Question: How did the pKi turn out when `CC1c2c(ccc3[nH]c(=O)cc(Cl)c23)N(CCC(F)(F)F)C1C` (racemic) [Compound 145, (±)-9-Chloro-1,2-dimethyl-3-(3,3,3-trifluoropropyl)-1,2,3,6-tetrahydro-pyrrolo[3,2-f]-quinolin-7-one] was run?
Answer: > 8.30

Same assay, conditions: competition with 1 nM 3H-DHT, transfected COS-1 cells, 3 h at 37° C., Cheng-Prusoff from IC50; read-out: Ki

Question: `Cc1c(-c2ccncc2)n(CC(F)(F)F)c2ccc3[nH]c(=O)cc(Cl)c3c12` [Compound 254, 9-Chloro-1-methyl-2-(4-pyridyl)-3-(2,2,2-trifluoroethyl)-3,6-dihydro-pyrrolo[3,2-f]-quinolin-7-one] was tested. Which pKi did it give?
Answer: < 8.00
